Structures can show the parent of a compound that is named as a salt. ± gives the standard error.
Experiments:
[1] = system: 621-102 (TSC2-deficient); assay: relative viability vs DMSO; higher = less cytotoxic; conditions: serum: 10% FBS, 72 h
[2] = system: 621-103 (TSC2-rescued); assay: as above; conditions: serum: 10% FBS, 72 h
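Note: immortalized renal angiomyolipoma cells stably carrying empty vector or TSC2, dosed in 384-well plates in DMEM, viability normalized to vehicle-treated wells within each plate.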

Structure (SMILES) | relative viability ([1]; 0.0001 µM) [%] | relative viability ([1]; 0.001 µM) [%] | relative viability ([1]; 0.01 µM) [%] | relative viability ([1]; 0.1 µM) [%] | relative viability ([1]; 1 µM) [%] | relative viability ([1]; 10 µM) [%] | relative viability ([2]; 0.0001 µM) [%] | relative viability ([2]; 0.001 µM) [%] | relative viability ([2]; 0.01 µM) [%] | relative viability ([2]; 0.1 µM) [%] | relative viability ([2]; 1 µM) [%] | relative viability ([2]; 10 µM) [%]
CNC(C)C1CCC(N)C(OC2C(N)CC(N)C(OC3OCC(C)(O)C(NC)C3O)C2O)O1 (stereo unspecified) [Gentamycin sulfate (Gentacycol)] | 104 ± 4.4 | 109 ± 2.3 | 113 ± 2.6 | 109 ± 4.9 | 106.5 ± 0.17 | 91.9 ± 1.7 | 99.8 ± 1.9 | 89.3 ± 9.2 | 89.5 ± 1.6 | 94.13 ± 0.19 | 88.3 ± 7.1 | 96.9 ± 3.5
CN1C2CCCC1CC(NC(=O)c1nn(C)c3ccccc13)C2 (stereo unspecified) [Granisetron HCl] | 101 ± 3.8 | 99.5 ± 1 | 94.6 ± 1.2 | 99.56 ± 0.18 | 102.3 ± 0.95 | 95.1 ± 1.5 | 105.6 ± 0.89 | 102 ± 1.7 | 106.4 ± 0.23 | 106 ± 5.2 | 103 ± 4.2 | 102 ± 3
CCS(=O)(=O)Nc1ccc2c(c1)/C(=C(/Nc1ccc(CN3CCCCC3)cc1)c1ccccc1)C(=O)N2 [Hesperadin] | 105 ± 6.1 | 95.5 ± 3.5 | 77.4 ± 2.1 | 85.2 ± 1.8 | 59.2 ± 1.9 | 2.25 ± 0.32 | 100 ± 3.2 | 93.1 ± 1.2 | 97.46 ± 0.18 | 85.6 ± 0.14 | 42.75 ± 0.27 | 3.8 ± 0.2
CC[C@H](c1ccc(O)cc1)[C@@H](CC)c1ccc(O)cc1 [Hexestrol (Bibenzyl)] | 105 ± 2.8 | 121 ± 3.7 | 108 ± 5.3 | 100 ± 6.5 | 113 ± 2.7 | 99.9 ± 5.4 | 89.4 ± 5.1 | 89.3 ± 4 | 90.4 ± 1 | 90 ± 2.3 | 95 ± 2.3 | 95.35 ± 0.45
O=C1[C@H](Cc2ccc(O)cc2)N2C(=O)CCN(C(=O)NCc3ccccc3)[C@H]2CN1Cc1cccc2ccccc12 [ICG-001] | 116 ± 2.7 | 105.3 ± 0.41 | 106 ± 1.1 | 102 ± 4.2 | 98.9 ± 2.3 | 52.9 ± 0.89 | 105 ± 2.9 | 109 ± 7.1 | 108.7 ± 0.74 | 103 ± 1.3 | 109 ± 1.5 | 37.8 ± 0.69
CCN(CC)Cc1ccc2cc(COC(=O)Nc3ccc(C(=O)NO)cc3)ccc2c1 [ITF2357] | 107 ± 6.2 | 101 ± 3.4 | 95.94 ± 0.22 | 76.42 ± 0.1 | 57.1 ± 3.5 | 25.4 ± 0.77 | 98.21 ± 0.79 | 95.5 ± 1.7 | 96 ± 2 | 67.63 ± 0.33 | 26.9 ± 0.91 | 3.1 ± 0.064
CC(C)Cc1ccc(C(C)C(=O)O)cc1 (stereo unspecified) [Ibuprofen] | 102.6 ± 0.15 | 109 ± 5.4 | 114 ± 1.2 | 112.4 ± 0.85 | 106 ± 1.3 | 104 ± 3.3 | 105.8 ± 0.48 | 99.2 ± 0.35 | 101 ± 0.81 | 99.61 ± 0.82 | 98.25 ± 0.82 | 98.82 ± 0.41
COc1ccc(-c2oc3c(CC=C(C)C)c(O[C@@H]4O[C@H](CO)[C@@H](O)[C@H](O)[C@H]4O)cc(O)c3c(=O)c2O[C@@H]2O[C@@H](C)[C@H](O)[C@@H](O)[C@H]2O)cc1 [Icariin] | 93.6 ± 10 | 92.7 ± 2.9 | 89.44 ± 0.27 | 102 ± 5.1 | 87.9 ± 11 | 80.99 ± 0.32 | 116 ± 1.2 | 105 ± 3.3 | 109 ± 1.2 | 101 ± 1.4 | 98.3 ± 5.3 | 116 ± 3.7
Cc1ccc(NC(=O)c2ccc(CN3CCN(C)CC3)cc2)cc1Nc1nccc(-c2cccnc2)n1 [Imatinib (STI571)] | 85.09 ± 0.54 | 107 ± 2.1 | 99 ± 3.4 | 109 ± 3.3 | 108 ± 2.7 | 95.35 ± 0.94 | 94.6 ± 4.2 | 97.664 ± 0.066 | 101 ± 0.77 | 101 ± 2 | 94.4 ± 3.7 | 96.9 ± 4.7
Cc1ccc(NC(=O)c2ccc(CN3CCN(C)CC3)cc2)cc1Nc1nccc(-c2cccnc2)n1 [Imatinib Mesylate] | 99 ± 2.9 | 113 ± 3.7 | 108 ± 3.2 | 111 ± 3.6 | 107 ± 3.1 | 94.78 ± 0.7 | 95.2 ± 5.4 | 90.4 ± 3.4 | 101.6 ± 0.44 | 97.9 ± 1.8 | 98.3 ± 4.3 | 94.8 ± 4.8
CCCCC1=NC2(CCCC2)C(=O)N1Cc1ccc(-c2ccccc2-c2nnn[nH]2)cc1 [Irbesartan (Avapro)] | 103.3 ± 0.78 | 100.8 ± 0.93 | 105 ± 3.8 | 101 ± 4.9 | 110 ± 1.1 | 104 ± 2.6 | 102 ± 1.3 | 96.3 ± 4.2 | 95.6 ± 3.6 | 102 ± 1.9 | 103 ± 4 | 107.2 ± 0.91
CCc1c2c(nc3ccc(OC(=O)N4CCC(N5CCCCC5)CC4)cc13)-c1cc3c(c(=O)n1C2)COC(=O)[C@]3(O)CC [Irinotecan HCl Trihydrate] | 94 ± 3.9 | 98.4 ± 3 | 97.8 ± 1.5 | 108 ± 4.1 | 99.4 ± 3 | 63.351 ± 0.053 | 107 ± 5.2 | 107 ± 3.3 | 105 ± 1.8 | 101 ± 5.9 | 99.3 ± 1.9 | 57.5 ± 2.7
CCc1c2c(nc3ccc(OC(=O)N4CCC(N5CCCCC5)CC4)cc13)-c1cc3c(c(=O)n1C2)COC(=O)[C@]3(O)CC [Irinotecan] | 105 ± 1.2 | 106 ± 3.8 | 93.9 ± 2.1 | 108 ± 2.8 | 82 ± 0.64 | 33.7 ± 0.69 | 104 ± 4.3 | 98.62 ± 0.9 | 103 ± 1.1 | 99.19 ± 0.57 | 84.6 ± 1.1 | 30.2 ± 0.71
Clc1ccc(C(Cn2ccnc2)OCc2c(Cl)cccc2Cl)c(Cl)c1 (stereo unspecified) [Isoconazole] | 104 ± 1.2 | 107 ± 2.4 | 86.81 ± 0.67 | 108.4 ± 0.37 | 107 ± 1.4 | 100 ± 4.3 | 104 ± 2.4 | 109 ± 4 | 105 ± 1 | 103.2 ± 0.24 | 108 ± 1.4 | 95.32 ± 0.49
CC(C)NCC(O)c1ccc(O)c(O)c1 (stereo unspecified) [Isoprenaline HCl] | 103 ± 4.7 | 99.5 ± 2.4 | 102 ± 1.1 | 95.5 ± 4.2 | 94.6 ± 2.4 | 98.26 ± 0.6 | 95.6 ± 2 | 88 ± 5.3 | 91.5 ± 1.7 | 94.2 ± 6.9 | 91.3 ± 2.6 | 83.3 ± 1.6
Cc1ccc(C(=O)N(CCCN)[C@@H](c2nc3cc(Cl)ccc3c(=O)n2Cc2ccccc2)C(C)C)cc1 [Ispinesibmesilate] | 95.1 ± 1.5 | 81.2 ± 1.3 | 77.62 ± 0.57 | 63.9 ± 3 | 73 ± 1.6 | 1.22 ± 0.096 | 68.8 ± 3 | 51.76 ± 0.14 | 55.41 ± 0.1 | 49.4 ± 1.4 | 53.36 ± 0.26 | 1.19 ± 0.11
CCC(C)n1ncn(-c2ccc(N3CCN(c4ccc(OCC5COC(Cn6cncn6)(c6ccc(Cl)cc6Cl)O5)cc4)CC3)cc2)c1=O (stereo unspecified) [Itraconazole (Sporanox)] | 108 ± 2.3 | 115 ± 3.1 | 102 ± 1.8 | 112 ± 3.4 | 60 ± 7.2 | 7.53 ± 0.32 | 98.8 ± 5.2 | 86.8 ± 1.1 | 95.59 ± 0.8 | 97.5 ± 6.4 | 70.71 ± 0.48 | 15.44 ± 0.12
CCCNC(=O)Nc1ccc(Oc2ncnc3cc(OC)c(OC)cc23)cc1Cl [KRN 633] | 84.4 ± 4.7 | 119 ± 2.7 | 104 ± 12 | 94.6 ± 3.8 | 100 ± 2.7 | 102 ± 1.3 | 85.6 ± 4.4 | 95.9 ± 4.2 | 100 ± 3 | 96.9 ± 1.9 | 90.3 ± 3.6 | 99.8 ± 3.4

— the supplement of paper PMC8960247
